Experimental data from patent publication US20230212606A1, “COMPOSITIONS AND METHODS FOR TREATING KCNQ4-ASSOCIATED HEARING LOSS” (Akouos, Inc., priority 2020, published 2023).

Legend:
KCNQ4 [1] = test: shRNA- and CRISPR-mediated knockdown of KCNQ4 expression in HEK293 cells (FIG. 3, lanes); assay type: cell-based, human; conditions: HEK293 cells with KCNQ4 construct, N=4 biological replicates
Procedure: The following shRNA constructs and KCNQ4 constructs were tested in HEK293 cells: sh395, sh909, sh1095, sh1531, sh1593, sh1677, sh1721, and sh1827 (see FIG. 3). The following constructs were tested in HEK293 cells as a positive control (e.g., as a reference for maximum knockdown of KCNQ4 that can be achieved): SaCas9+sgRNA 447Fw+KCNQ4 (lane 11). A shVEGF construct (targeting VEGF) and KCNQ4 construct were tested in HEK293 cells as a negative control (lane 10). In addition, only the KCNQ4 construct was tested in HEK293 cells as a negative control (lane 12). […] The level of expression of KCNQ4 was most reduced by sh1827 and sgRNA 447Fw in this example. FIGS. 11 and 12 each show efficacy of knockdown with each of the shRNA constructs as well as an empty shRNA construct (“Mock”). Levels of KCNQ4 were measured using quantitative PCR, normalized to GAPDH. Two independent biological replicates were performed (FIGS. 11 and 12), each of which had three replicates per condition.

KCNQ4 [2] = test: SaCas9/gRNA knockdown of KCNQ4 in HEK cells, western blot, TIDE, immunofluorescence (FIG. 10); assay type: cell-based, human; conditions: western blot and immunofluorescence analyses (data not shown)
From the text: The present example describes a targeting strategy that knocks out both KCNQ4 alleles and replaces wild-type KCNQ4 with a codon-optimized KCNQ4 using a SaCas9/gRNA strategy FIG. (FIG. 9). The present example also describes an in vitro analysis of KCNQ4 knockdown in HEK cells via Western blot and quantitative PCR.
The following guides were transfected with SaCas9 and KCNQ4 DNA to determine knockdown efficiency: sg233Fw (lane 2), sg386Fw (lane 3), sg408Rev (lane 4), sg447Fw(lane 5), sg482Fw (lane 6), and sg490Fw (lane 7). An untransfected control (lane 8), sgVEGF (targeting VEGF) (lane 9), and Beta-Actin expression (lanes 2-9) were used as controls. […] To expand and/or improve upon results obtained thus far, similar experiments can be performed in 3T3 cells using deadCas9 and mouse sgRNA sequences.

Substance | level of expression of KCNQ4 (KCNQ4 [1]) | inhibition of KCNQ4 expression relative to other sgRNAs (KCNQ4 [2])
sgRNA 447Fw: gRNA targeting KCNQ4, SEQ ID NO: 45, target TTTCGGCTTGGAGTACATCGT; used with SaCas9 (expressed or natural sequence) | most reduced | –
sgRNA 408Rev: gRNA targeting KCNQ4, SEQ ID NO: 43, target AAGCCGAAAACCACGATCATC (expressed or natural sequence) | – | inhibited KNCQ4 expression more than other sgRNAs
sh1827: shRNA construct targeting KCNQ4; by order probably SEQ ID NO: 55 (GGTGGATGAAATCAGCATGATCGAAATCATGCTGATTTCATCCACC) | most reduced | –
sgRNA 386Fw: gRNA targeting KCNQ4, SEQ ID NO: 42, target AGGAGCACCAGGAACTTGCCA (expressed or natural sequence) | – | inhibited KNCQ4 expression more than other sgRNAs
